Source: patent US7342032B2 (dated 2008)

melting point | Structure (SMILES)
171 to 173 °C | O=C(NN1CCCCC1)c1nc(-c2ccc(Cl)cc2Cl)c(-c2ccc(Br)cc2)s1
185 to 186 °C | O=C(NN1CCCCCC1)c1nc(-c2ccc(Cl)cc2Cl)c(-c2ccc(Cl)cc2)s1
167 to 168 °C | O=C(Nc1ccccc1)c1nc(-c2ccc(Cl)cc2Cl)c(-c2ccc(Cl)cc2)s1
99 to 101 °C | O=C(NCCCC(F)(F)F)c1nc(-c2ccc(Cl)cc2Cl)c(-c2ccc(Cl)cc2)s1
